Entries after “also recorded” stand apart in the source; their conditions may differ. One block for each compound: values may come before it.
What was measured:
[1] = system: peripheral nerve endings of the epidermis; test: Intracutaneous wheals, infiltration anesthesia on forearms of man; assay type: in vivo; conditions: Conc. 0.25%; 12 healthy volunteers, pinprick
Description: By use of intracutaneous wheals it is possible to measure the analgesic effect of an anesthetic on the peripheral nerve endings of the epidermis.
This technique gives information about:
(1) The duration of anesthesia.
^1 Infiltration anesthesia on forearms of man. The test solutions wer
injected intracutaneously on the dorsum of the forearms of 12 healthy
volunteers, 20-25 years old. Three wheals were made on each arm in a
rotating system in a doublebind fashion. The local anesthetic effect was
tested using a pinprick technique. The "duration of anesthesia" was
defined as the time during which none out of six pinpricks into the wheal
was felt. The method has been described by Dhuner et al. (1972). […]

ulnar volar nerves = test: Finger blockade, digital nerve blocks in man; assay type: in vivo; conditions: Concentration 0.25%; for Time of onset, finger blockade: time from injection to complete analgesia
Procedure: ^2 Digital nerve blocks in man. The test solutions were injected to
block the ulnar volar nerves on the 2nd and 4th fingers of the same
volunteers who had participated in the intracutaneous wheal tests
described above. The tests were carried out in a double blind fashion in
rotating system, so that each solution was used with equal frequency on
each of the blocked fingers. A total of for injections 1.0 ml per
injection, was done in each subject. One week later the procedure was
repeated in the same subjects using the remaining test solutions. This
method has been described by Dhuner et al. (1972) (for citation see Table
2 footnote 1). To measure the efficacy and duration of the blocks, the
individual fingers were pricked rapidly 10 times with a needle algesimete
and the number of painful pricks noted. Each finger was tested every five
minutes until complete recovery. The time of complete anesthesia has been
called "duration of anesthesia".
*i.e. the time from injection to complete analgesia?
**i.e. the number of successful anesthesias of total number of
anesthesias performed (no anesthesia is possible if the ulnar volar nerve
are not contacted by the anesthetic).

skin = test: Skin temperature measurements within intracutaneous wheals; assay type: in vivo, man; conditions: for Temperature Difference (T1 wheal vs T2 controls) / T1 Intracutaneous Wheal temperature: HCl-salt, 10 minutes after injection; for T1 Intracutaneous Wheal temperature: mean of 6 wheals; for effect on temperature over the wheal: comparison with lidocaine + adrenaline
Procedure: The mean value of 6 wheals for each substance forms the basis for the values. The control values, however, represent the mean value obtained from 4 different sites measured outside the wheals 90 degrees apart and 2 centimeters from the wheal's center.
In the temperature measurements, an Oriel temperature apparatus* has been used. This is battery driven and is connected to a detector (diameter, 2.5 mm) and has an accuracy of ±0.1° C. The temperature of the skin is measured by pressing the detector against the skin with a pressure of 100 grams. It is retained against the skin until a constant temperature is obtained.
In Table 4, T1 is the measurement obtained at the center of the wheal, and T2 is the average of four measurements taken 90 degrees apart outside of the wheal and within 2 centimeters of the wheal's center.

pigs = test: Intracoronary administration in anesthetized pigs; assay type: in vivo, pig; conditions: intracoronary
Procedure: Eight pigs weighing around 50 kg were anesthetized with a continuous infusion of pentobarbital at 600 mg/h. Ventilation was established via a tracheotomy with 30% oxygen in nitrogen and normoventilation by a Siemens-Elema Servoventilator 900B. The following catheters were inserted after cutdown: Left ventricular, aortic, pulmonary arterial, great cardiac venous, left anterior descending coronary, arterial and central venous. […] The corresponding doses for bupivaciane were 0.25, 0.5, 1, 2 and 4 mg and for LEA 0.33, 0.66, 1.33, 2.66 and 5.33 mg. The injection rate was adjusted according to the preinjection coronary blood flow. Each series of drug injections was preceded by a placebo infusion. Total hemodynamic and electrocardiographic recovery was allowed between doses and there was a one hour resting period between drugs.
Central pressures, left ventricular dP/dT and a complete chest lead ECG were recorded continuously. Cardiac output and great cardiac venous blood flow were determined before and directly after each dose of the local anesthetic agent.

[2] = target: T1, guinea-pig papillary muscle sodium channels (Cavia porcellus, UniProt H0V4Z8); test: Action on guinea-pig papillary muscle sodium channels (Vmax, recovery from block); assay type: cell-based
T1 construct: Vmax of action potential as measure of sodium current
Description: Depression of cardiac conduction appears to be one of the primary mechanisms underlying local anesthetic cardiotoxicity. Depression of conduction by local anesthetics in both nerve and cardiac tissue results from a block of sodium channels. Furthermore, the degree of sodium channel block by local anesthetics is dependent upon the state of the sodium channel. […] Consequently, a block of sodium channels develops during the upstroke and plateau of the action potential and dissipates during the diastolic interval between beats. Since the effect of a local anesthetic is both state and time dependent, changes in both heart rate and diastolic membrane potential may alter drug action substantially.
(§1) Guinea pig papillary tests were carried out according to the recommendation of the "Report of the Subcommittee on Cardiotoxicity of Local Anesthetics" (Leroy D. Vandam, M.D., chairman). Guinea pig papillary muscle excised from the right ventricle were mounted in a single sucrose gap apparatus (Arlock & Katzune, 1985). Solutions maintained at 37° C.±0.5° continuously perfused the gap compartments. The rear chamber contained isotonic potassium chloride solution. The drugs were added to a Tris-Tyrode solution passing the tip of the muscle. The Tris-Tyrode solution contained (mM): NaCl, 145; KCl, 4; CaCl2, 1.2; MgCl2, 1.05; glucose, 5.5 Tris maleate, 5. It was adjusted to pH 7.4 with trismaleate and HCl before use and gassed with 100% oxygen. Isotonic sucrose solution isolated the rear from the tip to enable current- and voltage-clamping.
The muscles were depolarized with long current pulses (1500 msec). These current steps can induce automaticity or DIA (depolarization induced automaticity). The steps were adjusted so the preparations were depolarized to from -50 to -30 mV since that is in that range that calcium current conductance is initiated.
The results represent the mean from representative experiments. In the absence of drug, Vmax (maximum upstroke velocity of the action potential) recovers from inactivation with an exponential time constant of less that 30 msec at -90 mV (Gettes and Reuter, 1974). […] The time constant of this recovery process is different for channels blocked by different drugs.

[3] = Force of contraction of guinea pig papillary muscle; assay type: cell-based; conditions: guinea pig, papillary muscle
Procedure: (§2) In order to initiate an investigation without the necessity to involve voltage-clamp of the calcium current, the preparations were subject to long depolarizing induced automaticity. If the cells are depolarized from about -50 to about -30 mV the automaticity is dependent on a transmembrane calcium current.
as §1, with “Guinea pig papillary muscle excised from the right ventricle were mounted in a single sucrose gap apparatus (Arlock & Katzune, 1985).” left out, “The Tris-Tyrode solution contained (mM): NaCl, 145; KCl, 4; CaCl2, 1.2; MgCl2, 1.05; glucose, 5.5 Tris maleate, 5.” left out
(§3) The force of contraction was measured with a strain gauge transducer before and after the addition of the test compounds to the medium. The percent reduction in maximum force of contraction from the control was calculated.

[4] = system: guinea pig papillary muscle; test: as above; assay type: cell-based; conditions: listed as LEA
Procedure: as §2
as §1, with “Guinea pig papillary muscle excised from the right ventricle were mounted in a single sucrose gap apparatus (Arlock & Katzune, 1985).” left out, “The Tris-Tyrode solution contained (mM): NaCl, 145; KCl, 4; CaCl2, 1.2; MgCl2, 1.05; glucose, 5.5 Tris maleate, 5.” left out
as §3

[5] = Anesthetic activity/potency comparison; assay type: in vivo; conditions: comparison within homologous series
tissue [6] = test: Tissue toxicity limits (Trypan blue test, threshold of tissue irritancy); assay type: in vivo; conditions: in vivo
Description: The toxicity of the homologous series of N-alkylpipecolic acid-2,6-xylidides increases step wise and quickly with the lengthening of the alkyl chain. This is manifest from Table 1 set forth below, which compares racemic mixtures of alkyl homologues having from 1 to 5 carbon atoms.
*Trypan blue test; Hoppe et al. (1950), 39, 147-151 "Use of Trypan Blue
and Rabbit Eye Tests For Irritation", J. Amer. Pharm. Assoc. (Scient.
Ed.), the values are approximate threshold values of tissue irritancy.

tissue [7] = conditions: in vivo; cited from earlier work

- sudden cardiac collapse (pigs): not
- Vmax depression ([2]; 10^-4 M for a short period): very depressed
- time to full recovery of Vmax ([2]; 10^-4 M, stimulus rate 1 Hz): 20 min
- elimination from the tissue (washout) ([2]; 25 min. washout after 10^-4 M): readily eliminated from the tissue
- recovery to 90% of drug-blocked channels ([2]; -90 mV): 2048 ms
- inhibition at 5 µM [3]: 13.8%
- inhibition at 10 µM [3]: 9.6%
- inhibition at 100 µM [3]: 8%
SMILES: CCCN1CCCC[C@H]1C(=O)Nc1c(C)cccc1C [3 L, L-N-n-propylpipecolic acid-2,6-xylidide]
- Analgesia-duration, intracutaneous wheals [1]: 220 ± 23 min
- Analgesia-duration, finger blockade (ulnar volar nerves): 739 ± 46 min
- Frequency (successful anesthesias of total performed) (ulnar volar nerves): 6/7
- Time of onset, finger blockade (ulnar volar nerves): 12 ± 2 min
- Temperature Difference (T1 wheal vs T2 controls) (skin; Conc. 0.25%): -1.2 °C
- T1 Intracutaneous Wheal temperature (skin; Conc. 0.25%): 30.0 °C
- effect on temperature over the wheal (skin): lowers the temperature over its wheal to approximately the same extent as the combination of lidocaine with adrenaline
- attenuated excitability ([2]; 10^-4 M for a short period): no attenuated excitability could be detected
- recovery from block ([2]; especially at hyperpolarized levels (-100--120 mV), listed as LEA): recovers faster; also recorded: considerably faster
- effect on force of contraction/contractility [4]: only moderately diminished; also recorded: very mild depressant actions
- anesthetic effect [5]: optimal increase of anesthetic effects; also recorded: markedly superior

SMILES: CCCN1CCCCC1C(=O)Nc1c(C)cccc1C (stereo not shown) [3 R, N--n-propylpipecolic acid 2,6-xylidide]
- Tissue toxicity limits in % (tissue [6]): 1.5%
- Analgesia-duration, intracutaneous wheals [1]: 84 ± 15 min
- Analgesia-duration, finger blockade (ulnar volar nerves): 263 ± 31 min
- Frequency (successful anesthesias of total performed) (ulnar volar nerves): 9/10
- Time of onset, finger blockade (ulnar volar nerves): 10 ± 1 min
- Temperature Difference (T1 wheal vs T2 controls) (skin; Conc. 0.25%): -0.1 °C
- T1 Intracutaneous Wheal temperature (skin; Conc. 0.25%): 33.1 °C
- effect on temperature over the wheal (skin): practically no change in temperature
- anesthetic effect [5]: so far below that of the racemic Bupivacaine

SMILES: CCCCN1CCCC[C@@H]1C(=O)Nc1c(C)cccc1C [4 D]
- Analgesia-duration, intracutaneous wheals [1]: 75 ± 11 min
- Analgesia-duration, finger blockade (ulnar volar nerves): 243 ± 38 min
- Frequency (successful anesthesias of total performed) (ulnar volar nerves): 14/20
- Time of onset, finger blockade (ulnar volar nerves): 15 ± 4 min

SMILES: CCCCN1CCCC[C@H]1C(=O)Nc1c(C)cccc1C [4 L]
- Analgesia-duration, intracutaneous wheals [1]: 76 ± 10 min
- Analgesia-duration, finger blockade (ulnar volar nerves): 259 ± 37 min
- Frequency (successful anesthesias of total performed) (ulnar volar nerves): 13/20
- Time of onset, finger blockade (ulnar volar nerves): 13 ± 3 min

SMILES: CCCCCN1CCCC[C@@H]1C(=O)Nc1c(C)cccc1C [5 D]
- tissue irritation (tissue [7]): irritating

SMILES: CCCCCN1CCCC[C@H]1C(=O)Nc1c(C)cccc1C [5 L]
- tissue irritation (tissue [7]): irritating

SMILES: Cc1cccc(C)c1NC(=O)C1CCCCN1CCO (stereo not shown) [R--N--2-hydroxyethyl-pipecolic acid-2,6-xylidide]
- Temperature Difference (T1 wheal vs T2 controls) (skin; Conc. 1.0%): +0.5 °C
- T1 Intracutaneous Wheal temperature (skin; Conc. 1.0%): 31.2 °C
